Experimental data published in patent publication US20060100280A1, “Cell growth regulator” (Chugai Seiyaku Kabushiki Kaisha, priority 2002, published 2006).

Key:
ATB^0,+ = target: T1, ATB^0,+ (Canis lupus familiaris, UniProt A0A8I3P2T9); conditions: canine small intestinal brush border membrane; Hatanaka et al. 2002, J. Pharm. Pharmacol.; cited from earlier work
T1 construct: from tissue; host or cells: canine small intestinal brush border membrane (finding quoted from Hatanaka et al. 2002, J. Pharm. Pharmacol.)
T1 sequence (A0A8I3P2T9 1-639): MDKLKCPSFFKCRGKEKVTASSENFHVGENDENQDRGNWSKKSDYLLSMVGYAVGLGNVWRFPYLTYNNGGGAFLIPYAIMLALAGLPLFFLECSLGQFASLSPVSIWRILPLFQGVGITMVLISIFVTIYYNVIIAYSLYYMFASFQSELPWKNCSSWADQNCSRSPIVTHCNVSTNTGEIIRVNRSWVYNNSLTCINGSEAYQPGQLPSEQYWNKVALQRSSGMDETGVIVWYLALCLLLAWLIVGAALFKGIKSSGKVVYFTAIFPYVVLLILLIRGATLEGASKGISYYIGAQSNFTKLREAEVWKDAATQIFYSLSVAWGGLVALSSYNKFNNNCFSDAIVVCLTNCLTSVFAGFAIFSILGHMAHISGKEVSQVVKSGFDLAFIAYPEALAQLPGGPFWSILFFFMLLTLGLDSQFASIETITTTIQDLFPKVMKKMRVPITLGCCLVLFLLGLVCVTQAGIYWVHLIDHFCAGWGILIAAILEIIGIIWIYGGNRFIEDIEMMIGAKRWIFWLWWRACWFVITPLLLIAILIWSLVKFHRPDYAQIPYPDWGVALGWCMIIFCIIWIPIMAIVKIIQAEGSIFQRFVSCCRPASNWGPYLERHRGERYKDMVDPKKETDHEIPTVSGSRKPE

[1] = test system: breast cancer cell line MCF-7; experiment: Cell growth test, MTS assay, MCF-7; format: cell-based, human
Protocol: (§1) Accordingly, L-2-phenylglycine is considered to be a competitive inhibitor with strong specificity to ATB^0,+ (Hatanaka et al. 2002, J. Pharm. Pharmacol.). The present inventors prepared 20 mM L-2-phenylglycine solution by dissolving L-2-phenylglycine in a medium containing 0% FBS. IMDM was used as the medium for SW60 and HT29; and RPMI was used for MCF-7. This solution was diluted with the medium to prepare L-2-phenylglycine solutions of 2, 0.2, 0.02, and 0.002 mM.
(§2) Human colon cancer cell lines SW60 and HT29, and breast cancer cell line MCF-7 were prepared with medium to form 4×10^6, 1.6×10^6, and 1.6×10^6 cells/mL, respectively. 25 μL/well of the suspensions thus obtained (1×10^5, […], respectively) were plated onto a 96-well plate, which already contained 25 μL/well of medium comprising 12% FBS. 50 μL of L-2-phenylglycine solution was then added to each well. The cells were cultured in a 5% CO2 incubator, and surviving cell count was quantified by MTS assay on the fourth day of culturing.

[2] = test system: human colon cancer cell line SW60; experiment: Cell growth test, MTS assay, SW60; format: cell-based; conditions: SW60, surviving cell count by MTS on fourth day of culturing
Protocol: as §1, §2

[3] = test system: human colon cancer cell line HT29; experiment: Cell growth test, MTS assay, HT29; format: cell-based
Protocol: as §1, §2

N[C@H](C(=O)O)c1ccccc1 [L-2-phenylglycine]
Affinity compared with L-alanine and L-phenylalanine (ATB^0,+): stronger affinity
Cell growth suppression ([1]; MCF-7, in the presence of 1 mM, MTS on fourth day): approximately 10%
Cell growth suppression ([1]; MCF-7, surviving cell count by MTS on fourth day of culturing): concentration-dependent cell growth suppression was observed
Cell growth suppression [2]: could not be observed
Cell growth suppression ([3]; HT29, in the presence of 10 μM, reached equilibrium, MTS on fourth day): approximately 10%
Cell growth suppression ([3]; HT29, surviving cell count by MTS on fourth day of culturing): concentration-dependent cell growth suppression was observed
